Laboratory results from patent US9861104B2, “Method for producing an aqueous suspension concentrate formulation of a pyripyropene insecticide” (BASF SE, priority 2012, dated 2018).

Test: Conversion of the aqueous slurry into form B, followed by XRPD
Format: physicochemical
Conditions: 30 parts Insecticide A / 70 parts water, stirred
Protocol: The recorded 2θ values were used to calculate the stated interplanar spacings d. The intensity of the peaks (y-axis: linear intensity counts) is plotted versus the 2θ angle (x-axis in degrees 2θ). The formulation was prepared as follows: • (a) 30 parts by weight of Insecticide A, in the form of a powder, and 70 parts by weight of water were mixed in a vessel to obtain an aqueous slurry. The particle diameter of the particles was in the range 30-800 μm. […] The temperature of grinding head was controlled at 5° C. The milling was stopped when an average particle size of 1.5-2 μm (volume average) had been achieved (measured with Malvern Mastersizer 2000). To the thus obtained suspension the remaining antifoaming agent, the preservative and the thickener and water were added to with stirring to ensure homogeneous distribution of components. The amount of water was chosen that the final concentration of the pyripyropene derivative in the formulation was 100 g/l.

C[C@]1(COC(=O)C2CC2)[C@@H]2C[C@H](O)[C@@]3(C)Oc4cc(-c5cccnc5)oc(=O)c4[C@H](O)[C@@H]3[C@@]2(C)CC[C@@H]1OC(=O)C1CC1 [Insecticide A]
Conversion time (conversion of at least 90% into form B) (20° C.): <190 h | Conversion time (conversion of at least 90% into form B) (40° C.): <48 h | Conversion time (conversion of at least 90% into form B) (60° C.): 12 h
